In patent US20230375530A1, “HUMAN BLOOD-BRAIN BARRIER MODEL FOR IMMUNOLOGICAL STUDIES” (WISCONSIN ALUMNI RESEARCH FOUNDATION, priority 2020, published 2023):

System: hPSC-derived endothelial progenitors (Passage 1 ECs)
Assay: Immunocytochemistry of Passage 1 ECs treated with Wnt ligands, CHIR or conditioned media
Type: cell-based, human
Description: Collagen IV (Sigma-Aldrich) was dissolved in 0.5 mg/mL acetic acid to a final concentration of 1 mg/mL. Collagen IV-coated plates were prepared by diluting a volume of this stock solution 1:100 in water, adding the resulting solution to tissue culture plates, or #1.5 glass bottom plates (Cellvis, Sunnyvale, CA) for cells intended for confocal imaging (1 mL per well for 6-well plates, 0.5 mL per well for 12-well plates, 0.25 mL per well for 24-well plates), and incubating the plates for 1 h at RT. Collagen IV coating solution was removed and EPCs obtained as described above were suspended in hECSR medium and plated at approximately 3×10^4 cells/cm^2. In some experiments, cells were suspended in NR-CM or Astro-CM. In some experiments, ligands and small molecules were added to hECSR medium: CHIR 99021 (Tocris) was used at 4 μM except where indicated; DMSO (Sigma-Aldrich) was used as a vehicle control for CHIR; Wnt3a (R&D Systems) was used at 20 ng/mL; Wnt7a (Peprotech, Rocky Hill, NJ) was used at 50 ng/mL; Wnt7b (Abnova, Tapei, Taiwan) was used at 50 ng/mL; R-spondin 1 (Rspo1; Peprotech) was used at 50 ng/mL; doxycycline was used at 1, 2, or 4 μg/mL. The hECSR medium or CM, including any ligands or small molecules, was replaced every other day until confluent (typically 6 days). We denote this time point “Passage 1.”
Immunocytochemistry was performed in 24-well plates. Cells were washed once with 500 μL DPBS and fixed with 500 μL cold (−20° C.) methanol for 5 min, except cells intended for calponin/SM22a and CD31/Ki67 detection, which were fixed with 500 μL of 4% paraformaldehyde for 15 min. Cells were washed three times with 500 μL DPBS and blocked in 150 μL DPBS supplemented with 10% goat serum (Life Technologies) for 1 h at room temperature, except cells intended for calponin/SM22α detection, which were blocked and permeabilized in DPBS supplemented with 3% BSA and 0.1% Triton X-100, or cells intended for CD31/Ki67 detection, which were blocked and permeabilized in DPBS supplemented with 5% non-fat dry milk and 0.4% Triton X-100. Primary antibodies diluted in 150 μL of the above blocking solutions (see Table 6 for antibody information) were added to cells and incubated overnight at 4° C. on a rocking platform. Cells were washed three times with 500 μL DPBS. Secondary antibodies diluted in 150 μL of the above blocking solutions (see Table 6 for antibody information) were added to cells and incubated for 1 h at room temperature on a rocking platform, protected from light. Cells were washed three times with 500 μL DPBS, followed by 5 min incubation with 500 μL DPBS plus 4 μM Hoechst 33342 (Life Technologies). Images were acquired using an Eclipse Ti2-E epifluorescence microscope (Nikon, Tokyo, Japan) with a 20× objective or an A1R-Si+ confocal microscope (Nikon) with a 100× oil objective. Confocal images were acquired with 1 μm slice spacing.
Images were analyzed using FIJI (ImageJ) software. For epifluorescence images, 5 fields (20×) were analyzed per well, with 3-4 wells per treatment condition. For quantification of cell number, EC colonies were manually outlined, and the Analyze Particles function was used to estimate the number of nuclei within the EC colonies. Nuclei outside the EC colonies were manually counted. EC purity (% EC) was calculated as the number of nuclei within EC colonies relative to total nuclei. To estimate % GLUT-1^+ ECs, cells within the EC colonies with membrane-localized GLUT-1 immunoreactivity (e.g., arrowheads in FIG. 24B) were manually counted. To estimate % Ki67^+ ECs, cells within the EC colonies with at least one nuclear-localized Ki67 punctum were manually counted. For quantification of fluorescence intensity in epifluorescence images, EC colonies were manually outlined, and the Measure function was used to obtain the mean fluorescence intensity for each image channel (fluorophore). A cell-free area of the plate was similarly quantified for background subtraction. […]

[1] = 4 μM CHIR vs control, Passage 1 ECs

Cc1c[nH]c(-c2cnc(NCCNc3ccc(C#N)cn3)nc2-c2ccc(Cl)cc2Cl)n1 [CHIR, CHIR 99021]
caveolin-1 expression vs DMSO (2 μM CHIR): did not lead to increased caveolin-1 expression
claudin-5 or GLUT-1 expression vs control (2 μM CHIR): did not elevate claudin-5 or GLUT-1 expression
EC number and EC purity (2 μM CHIR vs 4 μM CHIR): less effective in increasing EC number and EC purity than 4 μM CHIR
increase in GLUT-1 abundance [1]: ~30 fold
increase in average claudin-5 abundance [1]: approximately 1.5 fold
increase in caveolin-1 [1]: 4 fold
ECs with induced GLUT-1 expression (4 μM CHIR, Passage 1 ECs, IMR90-4): approximately 90%
EC number, EC purity, claudin-5 expression (6 μM CHIR vs 4 μM): did not improve EC number, EC purity, or claudin-5 expression
GLUT-1 abundance (6 μM CHIR vs 4 μM): further increased GLUT-1 abundance
caveolin-1 abundance (6 μM CHIR vs 4 μM): further increased caveolin-1 abundance
increases in GLUT-1 abundance (CHIR treatment initiated immediately after MACS): 10- to 40 fold
EC purity (proportion of ECs compared to SMLCs) (Passage 1 cultures, 6 days treatment): increasing EC purity to a level similar to that achieved with Wnt7a
EC purity, EC number, caveolin-1 and GLUT-1 expression (additional hPSC line (WTC11)): conserved
claudin-5 upregulation (additional hPSC line (WTC11)): not apparent
reduction of PLVAP abundance (confocal microscopy, Passage 1 ECs, CHIR vs DMSO): approximately 20%
